The record followed here is patent publication US4436733A, “4"- And 3-ester derivatives of DMT and DMOT” (Eli Lilly and Company, priority 1982, dated 1984).

In experiment [1] the test system is Pasteurella multocida 60A. Nature of the experiment: conventional broth-dilution microtiter test, MIC. The experiment is classed as cell-based. The conditions noted are these: avian isolate. The procedure: (§1) The MIC's in Table III were determined by standard agar-dilutionassays. The MIC's in Table IV were obtained using a conventional broth-dilution microtiter test.

The test system of experiment [2] is Pasteurella multocida 17E. The experiment is described as follows: conventional broth-dilution microtiter test, MIC. Type of experiment: cell-based. The conditions noted are these: bovine isolate. The method, then:
as §1

For the next experiment, the system named is Streptococcus sp. 80. Nature of the experiment: conventional broth-dilution microtiter test, MIC. Type of experiment: cell-based. The method, then: as §1
The next experiment has as its system Staphylococcus aureus. Nature of the experiment: conventional broth-dilution microtiter test, MIC. The experiment is classed as cell-based. The procedure:
as §1

The next experiment relates to Mycoplasma synoviae. Nature of the experiment: conventional broth-dilution microtiter test, MIC. The experiment is classed as cell-based. The procedure: as §1
Another experiment deals with Mycoplasma gallisepticum. Nature of the experiment: conventional broth-dilution microtiter test, MIC. Type of experiment: cell-based. The procedure:
as §1

A further experiment relates to Mycoplasma hyorhinis. The experiment is described as follows: conventional broth-dilution microtiter test, MIC. The experiment is classed as cell-based. The procedure:
as §1

In experiment [3] the test system is Staphylococcus aureus X400. The experiment is described as follows: standard agar-dilution assay, MIC. The experiment is classed as cell-based. The conditions noted are these: Staphylococcus aureus X400, methicillin resistant strain. The method, then:
as §1
^c Methicillinresistant-strain

In experiment [4] the test system is Staphylococcus epidermidis EPI1. Nature of the experiment: standard agar-dilution assay, MIC. Type of experiment: cell-based. The method, then: as §1
Experiment [5] relates to Staphylococcus aureus S13E. Nature of the experiment: standard agar-dilution assay, MIC. Type of experiment: cell-based. The procedure: as §1
Experiment [6] deals with Streptococcus Group D X66. The experiment is described as follows: standard agar-dilution assay, MIC. Type of experiment: cell-based. The procedure:
as §1

A further experiment deals with Streptococcus Group 9960. Nature of the experiment: standard agar-dilution assay, MIC. Type of experiment: cell-based. The method, then: as §1
The test system of experiment [7] is Streptococcus pyogenes C203. The experiment is described as follows: standard agar-dilution assay, MIC. Type of experiment: cell-based. The method, then: as §1
Experiment [8] deals with Staphylococcus aureus X1.1. Nature of the experiment: standard agar-dilution assay, MIC. Type of experiment: cell-based. The method, then: as §1
Experiment [9] has as its system Staphylococcus epidermidis EPI2. The experiment is described as follows: standard agar-dilution assay, MIC. Type of experiment: cell-based. The method, then: as §1
Experiment [10] has as its system Streptococcus pneumoniae Park I. The experiment is described as follows: standard agar-dilution assay, MIC. The experiment is classed as cell-based. The method, then: as §1
The subject of experiment [11] is Staphylococcus aureus V41. The experiment is described as follows: standard agar-dilution assay, MIC. The note with it: Staphylococcus aureus V41, penicillin resistant strain. Type of experiment: cell-based. The procedure:
as §1
^b Penicillinresistant strain

Experiment [12] deals with Streptococcus pyogenes C203. Nature of the experiment: experimental bacterial infection in mice, ED50. Type of experiment: in vivo. The conditions noted are these: C203, po, read-out: ED50 (effective dose to protect 50% of the test animals). The method, then: The ester derivatives of this invention have shown in vivo antimicrobial activity against experimental bacterial infections caused by gram-positivebacteria. When two doses of test compound were administered to mice with experimental infections, the activity observed was measured as an ED50 value [effective dose in mg/kg to protect 50% of the test animals: see Warren Wick, et al., J. Bacteriol. 81, 233-235 (1961)].
^a mg/kg × 2; doses given 1 and 5 hours postinfection

Molecules are shown by their SMILES. Where only a bound is given, the exact number is not on record here.

With `CCC(=O)OCC1C=C(C)C=CC(=O)C(C)CC(CC=O)C(OC2OC(C)C(OC3CC(C)(O)C(OC(=O)CC)C(C)O3)C(N(C)C)C2OC(C)=O)C(C)C(O)CC(=O)OC1CC` (centres unmarked) [Compound 3, 2'-O-Acetyl-23,4"-Di-O-Propionyl-DMT], the “MIC (minimal inhibitory concentration)” value stood at 12.5 in [1]; 12.5 in experiment [2]; 0.78 in the experiment on Streptococcus sp. 80; 0.78 against Staphylococcus aureus; 0.78 against Mycoplasma synoviae; 0.097 against Mycoplasma gallisepticum. Moreover, the “MIC (minimal inhibitory concentration)” value is on record as 0.39 with Mycoplasma hyorhinis; 1 in experiment [3]; 0.5 in [4]; 0.5 in experiment [5]; 1 in experiment [6]; 1 with Streptococcus Group 9960. For the same compound, the “MIC (minimal inhibitory concentration)” value is recorded as 0.25 in experiment [7]; 0.5 in experiment [8]; 1 in experiment [9]; 0.125 in experiment [10]; 1 in experiment [11].
Turning to `CCC1OC(=O)CC(O)C(C)C(OC2OC(C)C(OC3CC(C)(O)C(OC(=O)Cc4ccccc4)C(C)O3)C(N(C)C)C2OC(C)=O)C(CC=O)CC(C)C(=O)C=CC(C)=CC1COC(=O)Cc1ccccc1` (centres unmarked) [Compound 5, 2'-O-Acetyl-23,4"-Di-O-Phenylacetyl-DMT], the “MIC (minimal inhibitory concentration)” value in [1] is recorded as more than 50; in experiment [2] it was more than 50; in the experiment with Streptococcus sp. 80 it was 1.56; against Staphylococcus aureus, 50; in the experiment with Mycoplasma synoviae, 12.5; against Mycoplasma gallisepticum it was 1.56. Besides, the “MIC (minimal inhibitory concentration)” value is on record as 6.25 against Mycoplasma hyorhinis; 2 in [3]; 1 in experiment [4]; 1 in experiment [5]; 2 in experiment [6]; 2 against Streptococcus Group 9960. The “MIC (minimal inhibitory concentration)” value amounted to 1 in [8], 2 in experiment [9] and 1 in experiment [11]. Also, in experiment [12], the 50% effective dose (ED50) is more than 144 mg/kg.
As to `CCC1OC(=O)CC(O)C(C)C(OC2OC(C)C(OC3CC(C)(O)C(OC(=O)COc4ccccc4)C(C)O3)C(N(C)C)C2OC(C)=O)C(CC=O)CC(C)C(=O)C=CC(C)=CC1COC(=O)COc1ccccc1` (centres unmarked) [Compound 7, 2'-O-Acetyl-4",23-Di-O-Phenoxyacetyl-DMT], the “MIC (minimal inhibitory concentration)” value in experiment [1] is given as more than 50; in [2], more than 50; against Streptococcus sp. 80, 0.78; against Staphylococcus aureus, 12.5; in the experiment with Mycoplasma gallisepticum it was 0.78; with Mycoplasma hyorhinis, 0.78. The “MIC (minimal inhibitory concentration)” value in [3] is listed as 64; in experiment [4] it was 32; in [5] it was 32; in experiment [6], 32; against Streptococcus Group 9960, 16; in experiment [7], 8. The “MIC (minimal inhibitory concentration)” value stood at 32 in experiment [8], 128 in experiment [9], 1 in experiment [10] and 64 in [11].
`CCC1OC(=O)CC(OC(=O)COc2ccccc2)C(C)C(OC2OC(C)C(OC3CC(C)(O)C(O)C(C)O3)C(N(C)C)C2OC(C)=O)C(CC=O)CC(C)C(=O)C=CC(C)=CC1COC(=O)COc1ccccc1` (centres unmarked) [Compound 8, 2'-O-Acetyl-3,23-Di-O-Phenoxyacetyl-DMT]: the “MIC (minimal inhibitory concentration)” value is listed as 1 in [3]; 1 in [4]; 0.5 in [5]; 0.5 in experiment [6]; 0.25 in the experiment with Streptococcus Group 9960; 0.125 in [7]. For the same compound, the “MIC (minimal inhibitory concentration)” value is recorded as 0.5 in experiment [8], 1 in experiment [9], 0.125 in experiment [10] and 1 in experiment [11].
On to `CCC(=O)OCC1C=C(C)C=CC(=O)C(C)CC(CC=O)C(OC2OC(C)C(OC3CC(C)(O)C(OC(=O)CC)C(C)O3)C(N(C)C)C2OC(C)=O)C(C)C(OC(=O)CC)CC(=O)OC1CC` (centres unmarked) [Compound 9, 2'-O-Acetyl-3,23,4"-Tri-O-Propionyl-DMT], for which the “MIC (minimal inhibitory concentration)” value in [1] was more than 50; in experiment [2] it was more than 50; with Streptococcus sp. 80 it was 1.56; with Staphylococcus aureus, 1.56; with Mycoplasma synoviae, 0.78; in the experiment with Mycoplasma gallisepticum, 0.78. Besides, the “MIC (minimal inhibitory concentration)” value against Mycoplasma hyorhinis came out at 0.78; in [3] it was 1; in experiment [4] it was 1; in [5], 1; in [6], 1; with Streptococcus Group 9960, 1. Also, the “MIC (minimal inhibitory concentration)” value in [7] turned out to be 0.5; in experiment [8], 1; in experiment [9], 2; in experiment [10], 0.25; in experiment [11] it was 1.
Turning to `CCC1OC(=O)CC(O)C(C)C(OC2OC(C)C(OC3CC(C)(O)C(OC(=O)Cc4ccccc4)C(C)O3)C(N(C)C)C2OC(C)=O)C(CC=O)CC(C)C(=O)C=CC(C)=CC1C` (centres unmarked) [Compound 20, 2'-O-Acetyl-4"-O-Phenylacetyl-DMOT], the “MIC (minimal inhibitory concentration)” value in [1] was 50; in experiment [2], 50; with Streptococcus sp. 80, 50; in the experiment with Staphylococcus aureus it was 25; with Mycoplasma synoviae it was 50; in the experiment on Mycoplasma gallisepticum it was 6.25. For the same compound, the “MIC (minimal inhibitory concentration)” value with Mycoplasma hyorhinis is given as 50; in [3] it was more than 128; in experiment [4], more than 128; in experiment [5], more than 128; in [6] it was more than 128; in the experiment on Streptococcus Group 9960, more than 128. The “MIC (minimal inhibitory concentration)” value in experiment [7] is listed as 128; in experiment [8] it was more than 128; in experiment [9], more than 128; in experiment [10], 32; in experiment [11], more than 128.
On to `CCC1OC(=O)CC(O)C(C)C(OC2OC(C)C(OC3CC(C)(O)C(OC(=O)Cc4ccccc4)C(C)O3)C(N(C)C)C2O)C(CC=O)CC(C)C(=O)C=CC(C)=CC1C` (centres unmarked) [Compound 21, 4"-O-Phenylacetyl-DMOT], for which the “MIC (minimal inhibitory concentration)” value is 50 in experiment [1]; more than 50 in experiment [2]; 6.25 against Streptococcus sp. 80; 12.5 against Staphylococcus aureus; 6.25 against Mycoplasma synoviae; 0.78 against Mycoplasma gallisepticum. Further, the “MIC (minimal inhibitory concentration)” value in the experiment on Mycoplasma hyorhinis is 3.12; in [3], 16; in experiment [4], 8; in [5], 8; in experiment [6], 8; against Streptococcus Group 9960 it was 16. Further, the “MIC (minimal inhibitory concentration)” value in [7] came to 4; in experiment [8] it was 8; in experiment [9], 16; in experiment [10] it was 0.5; in experiment [11], 16.

As a reminder, the ED50 is the midpoint of the dose-response relation.
